Measured values reported in US9765077B2, “Synthesis of duocarmycin analogues” (University of East Anglia, priority 2015, dated 2017).
pIC50: −log10 of the molar value. Where a name gives a salt, the structure may show the parent alone.

Test system: HL60 human leukaemia cell lines
Test: Antiproliferative activity by MTS assay (CellTiter 96 Aqueous One Solution)
Format: cell-based
Conditions: HL-60, HL60 cells, 72 hr treatment, triplicate
Description: Antiproliferative activity was determined by MTS assay (Howell L A, Bowater R A, O'Connell M A, Reszka A P, Neidle S, Searcey M. (2012) Synthesis of Small Molecules Targeting Multiple DNA Structures using Click Chemistry. ChemMedChem, 7, 792-804) using the CellTiter 96 Aqueous One Solution Cell Proliferation Assay (Promega) and following the manufacturer's instructions.
The HL60 cell line was purchased from ECACC (Porton Down, UK). Cells were cultured in RPMI 1640 medium supplemented with 10% foetal calf serum and 2 mM L-glutamine. HL-60 cells were passaged twice weekly and maintained between 1-9×10^5 cells/ml at 37° C. and 5% CO2.
HL-60 cells (3×10^4/100 μl) were seeded in 96-well plates and left untreated or treated with DMSO (vehicle control), duocarmycins, or doxorubicin hydrochloride at 8 concentrations (see below) in triplicate for 72 hr at 37° C. with 5% CO2. Following this, MTS assay reagent was added for 4 hrs and the absorbance measured at 490 nm using the Polarstar Optima microplate reader (BMG Labtech). IC50 values were calculated using GraphPad Prism Version 5.0 software.

Work on `COc1cccc2c1C(=O)c1c(O)c3c(c(O)c1C2=O)C[C@@](O)(C(=O)CO)C[C@@H]3O[C@H]1C[C@H](N)[C@H](O)[C@H](C)O1` [Doxorubicin, doxorubicin hydrochloride] yielded a pIC50 of 6.90.
